Paper PMC11374673, “Discovery of isoquinoline sulfonamides as allosteric gyrase inhibitors with activity against fluoroquinolone-resistant bacteria” (Nature Chemistry, 2024)
Several values for one entry are separate records, joined by “and”; a condition that tells them apart may be missing. Identical values can stand only once. Entries after “also recorded” stand apart in the source; their conditions may differ.

How the values were obtained:
[1] = tested on: E. coli BW25113; test: Bacterial cytological profiling (BCP); format: cell-based, Escherichia coli; set-up: DAPI total area / DAPI nucleoid area / DIC area / DIC curvature / DIC feret / DIC length / DIC orientation: unit not given here
Protocol: Overnight E. coli BW25113 cultures were diluted 1:100 in fresh LB medium in a 100 ml Erlenmeyer flask and incubated at 120 r.p.m. and 37 °C. When OD600 >0.2, the cultures were diluted to OD600 of 0.1 in fresh LB medium with a final volume of 200 µl in a 2 ml Eppendorf tube. The appropriate antibiotic or control treatment was applied and the samples were incubated at 200 r.p.m. and 30 °C for 2 h. Subsequently, 4,6-diamidino-2-phenylindole (DAPI) (2 µg ml^−1), FM4-64 (2 µg ml^−1) and SYTOX Green (0.5 µM) were added to reach the desired concentration and the samples were incubated a further 10 min. The samples were then centrifuged at 3,300g for 50 s and the pellets resuspended in half the original volume. From this suspension, 5 µl was spotted onto a 2.0% agarose pad for microscopy.
Microscopy was performed on a Zeiss Axio Observer Z1/7 inverted microscope.
For the qualitative assessment of the bacterial morphology, the acquired images were first pre-processed in ImageJ (v1.53m)[47]. Thereafter the brightness and contrast were adjusted to allow the clearest visual inspection of the particular phenotype. For the quantitative BCP, DIC images were first pre-processed and then a random forest classifier was trained with Illastik (v1.3.3)[48] to generate a segmented image. These binary masks were then combined together with the original DIC image and processed with the ImageJ plugin MicrobeJ (v 5.13l)[49]. MicrobeJ generated cell outlines and performed measurements on cell shape accordingly. The recorded cell outlines produced by MicrobeJ were exported and used as a guide to characterize the DNA shape within each bacterium using a custom-made ImageJ macro (Appendix II). DAPI and SYTOX Green intensity were measured on raw images in a similar manner. Then, by hand, polygons were drawn that excluded bacteria to determine background intensity. After background correction the intensity was standardized to the DMSO control within the same biological replicate. For PCA, the BCP assay was executed for three independently biological replicates. During each experiment, images were acquired until 24 or more bacteria in total had been observed. Following feature extraction for each replicate, principal component analysis was performed using GraphPad Prism (v9.0.0) using multiple variable analysis with standardized data. Principal components (PCs) were selected based on the per cent of total explained variance (minimum 80%).

[2] = tested on: E. coli; test: Checkerboard assay LEI-800 with CIP; format: cell-based, Escherichia coli;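 also: bacterial growth read as OD600 after 20 h at 37 °C with shaking, each drug pair tested in triplicate wells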
[3] = BCP, standardized to DMSO control
[4] = Ciprofloxacin 0 nM + LEI-800 0.1 µM
[5] = Ciprofloxacin 0 nM + LEI-800 0.2 µM
[6] = Ciprofloxacin 0 nM + LEI-800 0.4 µM
[7] = Ciprofloxacin 0 nM + LEI-800 0.8 µM
[8] = Ciprofloxacin 0 nM + LEI-800 3.1 µM
[9] = Ciprofloxacin 0 nM + LEI-800 6.2 µM

## O=S(=O)(NC[C@@H]1CC[C@H](c2ccc(-c3cccnc3)cc2)N1)c1cccc2cnccc12 [LEI-800]
[1]
  PCA clustering of 24 BCP features: formed a cluster by itself
[1]; BCP
  DAPI aspect ratio: 5.858 ± 1.821
  DAPI circularity: 0.365 ± 0.084
  DAPI nucleoid area: 6.481 ± 2.006
  DAPI nucleoids: 1.368 ± 0.202
  DAPI perimeter: 16.318 ± 5.417
  DAPI roundness: 0.220 ± 0.035
  DAPI solidity: 0.808 ± 0.077
  DAPI total area: 8.438 ± 3.339
  DIC area: 13.636 ± 0.225
  DIC aspect ratio: 6.808 ± 0.283
  DIC circularity: 0.292 ± 0.021
  DIC curvature: 0.034 ± 0.003
  DIC feret: 11.758 ± 0.377
  DIC length: 11.910 ± 0.403
  DIC orientation: 88.418 ± 18.119
  DIC perimeter: 25.156 ± 0.728
  DIC roundness: 0.139 ± 0.012
  DIC sinuosity: 1.021 ± 0.003
  DIC solidity: 0.793 ± 0.033
  DIC width: 1.163 ± 0.063
  Decondensation: 0.616 ± 0.234
[1]; BCP microscopy, 6.25 µM
  morphological phenotype: elongation of the bacteria and condensation of the DNA; also recorded: phenotype resembling the CIP and TET morphological profile
[1]; BCP, 2 h, AMP 12.5, RIF 12.5, TET 6.25, CIP 0.0625, LEI-801 6.25, LEI-800 6.25 µM, average ± SD of 3 replicates
  DIC angularity: 0.076 ± 0.010
[1]; [3]
  DAPI intensity: 0.513 ± 0.191
  SYTOX Green intensity: 2.259 ± 1.119
[2]; [4]
  checkerboard plate reading, Average values: 0.7858
  checkerboard plate reading, replicate wells: 0.7683 and 0.7669 and 0.8222
[2]; [5]
  checkerboard plate reading, Average values: 0.7715
  checkerboard plate reading, replicate wells: 0.7509 and 0.7706 and 0.7931
[2]; [6]
  checkerboard plate reading, Average values: 0.7601
  checkerboard plate reading, replicate wells: 0.7802 and 0.7598 and 0.7404
[2]; [7]
  checkerboard plate reading, Average values: 0.5878
  checkerboard plate reading, replicate wells: 0.6002 and 0.5903 and 0.5728
[2]; [8]
  checkerboard plate reading, Average values: 0.291
  checkerboard plate reading, replicate wells: 0.2991 and 0.2865 and 0.2872
[2]; [9]
  checkerboard plate reading, Average values: 0.1602
  checkerboard plate reading, replicate wells: 0.157 and 0.1619 and 0.1616
[2]; Ciprofloxacin 0 nM + LEI-800 […]
  checkerboard plate reading, Average values: 0.4748
